Experiments:
PLK4 (h) = molecular target: T1, PLK4 (h) (Homo sapiens, UniProt O00444); assay: PLK-4 human kinase scintillation proximity assay (SPA); type: biochemical; settings: 1 μM ATP, 60 minutes at r.t., read-out: PLK4 pIC50 (converted)
T1 sequence (O00444 1-970): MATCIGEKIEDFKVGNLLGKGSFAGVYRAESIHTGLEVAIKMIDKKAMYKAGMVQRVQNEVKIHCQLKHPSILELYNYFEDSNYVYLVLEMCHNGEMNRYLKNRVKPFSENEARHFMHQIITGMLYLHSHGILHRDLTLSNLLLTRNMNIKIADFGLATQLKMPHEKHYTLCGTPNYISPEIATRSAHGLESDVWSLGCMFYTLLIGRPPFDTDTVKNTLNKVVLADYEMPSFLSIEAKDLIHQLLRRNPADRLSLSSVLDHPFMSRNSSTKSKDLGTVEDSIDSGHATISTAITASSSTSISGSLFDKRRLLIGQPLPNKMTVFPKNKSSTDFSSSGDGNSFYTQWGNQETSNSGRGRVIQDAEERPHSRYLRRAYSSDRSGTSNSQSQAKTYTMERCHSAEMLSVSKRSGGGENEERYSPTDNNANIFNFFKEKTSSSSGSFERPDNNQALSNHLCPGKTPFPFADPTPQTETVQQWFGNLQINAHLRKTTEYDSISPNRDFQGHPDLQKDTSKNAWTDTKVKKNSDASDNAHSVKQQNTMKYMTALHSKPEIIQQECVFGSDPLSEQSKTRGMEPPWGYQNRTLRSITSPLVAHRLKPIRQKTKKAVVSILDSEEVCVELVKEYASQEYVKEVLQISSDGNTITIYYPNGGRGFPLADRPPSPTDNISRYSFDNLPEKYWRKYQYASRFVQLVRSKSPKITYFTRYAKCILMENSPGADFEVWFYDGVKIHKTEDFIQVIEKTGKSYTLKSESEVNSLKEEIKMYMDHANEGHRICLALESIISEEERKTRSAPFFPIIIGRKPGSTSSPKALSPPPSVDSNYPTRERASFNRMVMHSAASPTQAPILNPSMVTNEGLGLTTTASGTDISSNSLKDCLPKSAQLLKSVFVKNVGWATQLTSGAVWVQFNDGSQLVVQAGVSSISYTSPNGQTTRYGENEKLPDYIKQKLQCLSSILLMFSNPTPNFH
Procedure: The in vitro inhibition of a panel of kinases was assessed using either the scintillation proximity assay (SPA) as described by Cook, N. D. et al., Advances in Experimental Medicine and Biology (1991), 36; p. 525-528.
In the SPA technology the activity of the kinase of interest is measured using an appropriate biotinylated substrate that is incubated with the aforementioned kinase protein in the presence of (^33P) radiolabeled ATP. (^33P) Phosphorylation of the substrate is subsequently measured through binding of the phosphorylated substrate to streptavidine coated beads that are based on the scintillant poly(vinyl toluene) (PVT-Beads). The scintillation intensity is detected by imaging on Leadseeker.
All kinases are pre-diluted to a 10× working concentration prior to addition into the assay. The composition of the dilution buffer for each kinase is detailed below.
In a final reaction volume of 30 μl, PLK4 (h) (19 μg/ml) is incubated with 50 mM Hepes pH 8.0, 10 mM MgCl2, 50 mM NaCl, 1 mM NaF, 1 mM DTT, 10 μM of peptide Biotin-RPRGQRDSSYYWE-OH, 1 μM ATP and 2 nM [γ-^33P-ATP] (6.0 μCi/ml). After incubation of 60 minutes at r.t., the reaction is stopped by addition of 40 μL of stop solution containing 8.7 mM EDTA, BSA 0.17%, 0.17% Triton X-100, 1.7 mg/ml SPA beads (GE-healthcare). The plate is centrifuged and read for Scintillation imaging on Leadseeker.

HCT-116 = assay: Cellular proliferation assay (Alamar blue), HCT-116; type: cell-based; settings: Homo sapiens; HCT-116 cells; 10% FCS; 72 h with compound; Alamar blue 4 h; read-out: pIC50 HCT-116 (converted)
Procedure: (§1) Cellular proliferation of these compounds was tested on a panel of different cell lines in the presence of 10% FCS serum (37° C. and 5% (v/v) CO2). In a first step these cells were seeded and incubated for 24 hours in the absence of compound. In the second step the cells were incubated for 72 hours with the compounds to be tested for 72 hours. The viable cell number was finally assessed in a standard Alamar blue cell viability assay.
(§2) The viable cell number was assessed by incubation for either 4 h (HCT-116, H1299) 6 h (U87-MG) or 24 h (A2780, PC3, MDA-MB-231) with Alamar blue (Resazurin 9 μg/ml, K-Ferrocyanide 90 μM, K-Ferricyanide 90 μM) and the converted fluorescent product was quantified on a fluorescent plate readed (544 nm/590 nm). Effect of the compounds is calculated as of on control cells.

H1299 = assay: Cellular proliferation assay (Alamar blue), H1299; type: cell-based; settings: Homo sapiens, NCI-H1299, H1299 cells; 10% FCS; 72 h with compound; Alamar blue 4 h; read-out: pIC50 H1299 (converted)
Procedure: as §1, §2

A2780 = assay: Cellular proliferation assay (Alamar blue), A2780; type: cell-based; settings: Homo sapiens, A2780, A2780 cells; 10% FCS; 72 h with compound; Alamar blue 24 h; read-out: pIC50 A2780 (converted)
Procedure: as §1, §2

PC3 = assay: Cellular proliferation assay (Alamar blue), PC3; type: cell-based; settings: Homo sapiens, PC-3, PC-3 cells; 10% FCS; 72 h with compound; Alamar blue 24 h; read-out: pIC50 PC-3 (converted)
Procedure: as §1, §2

MDA-MB-231 = assay: Cellular proliferation assay (Alamar blue), MDA-MB-231; type: cell-based; settings: Homo sapiens, MDA-MB-231, MDA-MB-231 cells; 10% FCS; 72 h with compound; Alamar blue 24 h; read-out: pIC50 MDA/MB231 (converted)
Procedure: as §1, §2

SMILES	IC50 (PLK4 (h))	IC50 (HCT-116)	IC50 (H1299)	IC50 (A2780)	IC50 (PC3)	IC50 (MDA-MB-231)
COc1ccc2cc1CN(C)[C@@H](CO)C(=O)N(C)CCCc1c[nH]c3ncnc(c13)N2 [Compound 9]	> 10 µM					
O=C1CCCOc2cc(ccc2N2CCOCC2)Nc2ncnc3[nH]cc(c23)CN2CCN1CC2 [Compound 110]	7.94 µM					
COc1ccc2cc1OCC(=O)N[C@H](Cc1ccccc1)CN(C)CCCc1c[nH]c3ncnc(c13)N2 [Compound 39]	> 10 µM					
CN1CCCN(C)C(=O)COc2cc(ccc2OCc2ccccc2)Nc2ncnc3[nH]cc(c23)C1 [Compound 11]	0.0501 µM					
CN1CCN(c2ccc3cc2OCCCCC(=O)N2CCN(CC2)Cc2c[nH]c4ncnc(c24)N3)CC1 [Compound 108]	7.94 µM	> 10 µM	> 10 µM	> 10 µM	> 10 µM	> 10 µM
COc1cc2cc(c1OC)OCCCC(=O)N(C)CCN(C)Cc1c[nH]c3ncnc(c13)N2 [Compound 95]	> 10 µM	> 10 µM	> 10 µM	> 10 µM	> 10 µM	> 10 µM
CN1CCN(c2ccc3cc2OCCCC(=O)N2CCN(CC2)Cc2c[nH]c4ncnc(c24)N3)CC1 [Compound 109]	> 10 µM	> 10 µM	> 10 µM	> 10 µM	> 10 µM	> 10 µM
COc1ccc2cc1OCC(=O)N(C)CC1CN(Cc3c[nH]c4ncnc(c34)N2)C1 [Compound 89]	0.251 µM	> 10 µM	> 10 µM	> 10 µM	> 10 µM	> 10 µM
CN1CCCN(C)C(=O)CCCOc2cccc(c2)Nc2ncnc3[nH]cc(c23)C1 [Compound 32]	0.501 µM					
CN1CCCN(C)C(=O)COc2cc(ccc2OC2CCOC2)Nc2ncnc3[nH]cc(c23)C1 (centres unmarked) [Compound 135]	0.158 µM					
CN1CCN(C)C(=O)CCCOc2cc(cc(C(F)(F)F)c2)Nc2ncnc3[nH]cc(c23)C1 [Compound 93]	6.31 µM	> 10 µM	1.26 µM	> 10 µM	> 10 µM	> 10 µM
CC(C)Oc1ccc2cc1OCC(=O)N(C)CCCN(C)Cc1c[nH]c3ncnc(c13)N2 [Compound 100]	0.0501 µM	1.58 µM	0.631 µM	1.58 µM	2 µM	6.31 µM
COc1cc2cc(c1OC)OCC(=O)N(C)CCN(C)Cc1c[nH]c3ncnc(c13)N2 [Compound 96]	5.01 µM	> 10 µM	> 10 µM	> 10 µM	> 10 µM	> 10 µM
COc1ccc2cc1CN(C)[C@@H](CC(C)C)C(=O)N(C)CCCc1c[nH]c3ncnc(c13)N2 [Compound 52]	> 10 µM					
COc1cc2cc(c1OC)OCCCC(=O)N(C)CCCN(C)Cc1c[nH]c3ncnc(c13)N2 [Compound 69]	2 µM	> 10 µM	> 10 µM	> 10 µM	> 10 µM	> 10 µM
CN1CCCN(C)C(=O)COc2cc(ccc2OCC(=O)N2CCOCC2)Nc2ncnc3[nH]cc(c23)C1 [Compound 117]	0.0501 µM	> 10 µM	> 10 µM	3.98 µM	> 10 µM	> 10 µM
COc1ccc2cc1CN(C)[C@@H](Cc1ccccc1)C(=O)N(C)CCCc1c[nH]c3ncnc(c13)N2 [Compound 51]	> 10 µM					
CN1CCCN(C)C(=O)COc2cc(ccc2OCCOC2CCCC2)Nc2ncnc3[nH]cc(c23)C1 [Compound 99]	0.0251 µM	0.0631 µM	0.0398 µM		6.31 µM	> 10 µM
CN1CCN(c2ccc3cc2OCCCC(=O)N(C)CCN(C)Cc2c[nH]c4ncnc(c24)N3)CC1 [Compound 94]	5.01 µM	> 10 µM	> 10 µM	> 10 µM	10 µM	> 10 µM
COc1ccc2cc1CCC(=O)N(C)CCCN(C)Cc1c[nH]c3ncnc(c13)N2 [Compound 55]	0.794 µM					
CN1CCCN(C)C(=O)CCCOc2cc(cc(C(F)(F)F)c2)Nc2ncnc3[nH]cc(c23)C1 [Compound 83]	5.01 µM	> 10 µM	3.98 µM	> 10 µM	> 10 µM	> 10 µM
CN1CCCN(C)C(=O)COc2cc(ccc2OC2CCCC2)Nc2ncnc3[nH]cc(c23)C1 [Compound 90]	0.0316 µM					
CN1CCN(C)C(=O)CCCCOc2cc(cc(C(F)(F)F)c2)Nc2ncnc3[nH]cc(c23)C1 [Compound 92]	> 10 µM	> 10 µM	6.31 µM	> 10 µM	> 10 µM	> 10 µM
CN1CCCN(C)C(=O)COc2cc(ccc2NC(=O)Nc2cc(Cl)cc(Cl)c2)Nc2ncnc3[nH]cc(c23)C1 [Compound 115]	0.158 µM	0.794 µM	1.58 µM	1 µM	> 10 µM	> 10 µM
CCCOc1ccc2cc1OCC(=O)N(C)CCCN(C)Cc1c[nH]c3ncnc(c13)N2 [Compound 101]	0.0398 µM	1.58 µM	0.794 µM	1.58 µM	2 µM	7.94 µM
CN1CCN(C)C(=O)COc2cc(ccc2N2CCOCC2)Nc2ncnc3[nH]cc(c23)C1 [Compound 97]	0.794 µM	> 10 µM	> 10 µM	> 10 µM	> 10 µM	> 10 µM
CN1CCCN(C)C(=O)COc2cc(ccc2OCC(=O)NC2CCCC2)Nc2ncnc3[nH]cc(c23)C1 [Compound 91]	0.0251 µM	1.58 µM	3.16 µM	0.794 µM	> 10 µM	> 10 µM
CN1CCCN(C)C(=O)CCCOc2cc(ccc2Cl)Nc2ncnc3[nH]cc(c23)C1 [Compound 43]	0.501 µM					
CN1CCN(c2ccc3cc2OCCCC(=O)N(C)CCCN(C)Cc2c[nH]c4ncnc(c24)N3)CC1 [Compound 102]	3.98 µM	6.31 µM	2.51 µM	6.31 µM	5.01 µM	> 10 µM
COc1ccc2cc1OCCCC(=O)NCCCN(C)Cc1c[nH]c3ncnc(c13)N2 [Compound 25]	0.631 µM					

Source: patent US8318731B2, “Pyrrolopyrimidines” (Janssen Pharmaceutica NV, priority 2007, dated 2012)
